These results are taken from patent US20100105674A1, “Chemical Compounds” (priority 2007, published 2010).

Bounds are passed on as bounds.

In this assay the target is T1, Wee1 (Homo sapiens, UniProt P30291).
T1 construct: endogenous in cells; host or cells: HeLa
T1 sequence (P30291 whole entry): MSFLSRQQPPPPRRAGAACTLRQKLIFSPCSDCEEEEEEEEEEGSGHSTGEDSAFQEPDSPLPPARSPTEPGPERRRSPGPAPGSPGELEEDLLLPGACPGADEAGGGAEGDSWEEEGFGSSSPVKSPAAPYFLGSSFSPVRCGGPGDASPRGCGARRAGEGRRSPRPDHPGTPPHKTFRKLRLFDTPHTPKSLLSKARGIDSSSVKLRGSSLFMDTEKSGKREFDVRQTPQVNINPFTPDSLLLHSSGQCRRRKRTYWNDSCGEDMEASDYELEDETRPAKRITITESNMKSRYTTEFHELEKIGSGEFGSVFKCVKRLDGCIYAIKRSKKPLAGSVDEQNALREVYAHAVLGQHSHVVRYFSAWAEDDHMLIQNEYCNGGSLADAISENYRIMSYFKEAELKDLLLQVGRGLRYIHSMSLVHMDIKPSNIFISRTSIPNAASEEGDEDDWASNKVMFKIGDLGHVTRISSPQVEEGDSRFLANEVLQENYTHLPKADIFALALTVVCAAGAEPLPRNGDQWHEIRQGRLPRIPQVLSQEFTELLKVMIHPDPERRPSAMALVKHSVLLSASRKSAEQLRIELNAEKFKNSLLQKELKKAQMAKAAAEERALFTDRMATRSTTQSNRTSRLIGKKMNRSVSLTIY
The assay is described as follows: Cell assay for Wee1 inhibitory activity (cell-based ELISA, phospho-cdc2(Tyr15)). Particulars: Hela cells synchronized using aphidicolin; phosphorylation level of cdc2 (Tyr15) by sandwich ELISA. The text has this:
Cell Assay for Wee1 Inhibitory Activity
Wee1 inhibitory activity can be measured using a cell-based ELISA assay. Hela cells are synchronized using aphidicolin, which blocks the entry of cells into S-phase. Cells in G2-M transition phase are then obtained by releasing the cells from aphidicolin treatment for approximately 7-9 hrs. The phosphorylation level of the Wee1 target cdc2 may then be measured by sandwich ELISA using an anti-cdc2 antibody and an anti-phospho-cdc2(Tyr15) antibody. This cell assay was used to calculate a pIC50 for the compounds described in Examples 2, 3, and 19.
In the case of `COc1ccccc1Nc1nc(Nc2cccc(OCCN(C)C)c2)ncc1Br` [Example 19, 5-bromo-N^2-(3-{[2-(dimethylamino)ethyl]oxy}phenyl)-N^4-[2-(methyloxy)phenyl]-2,4-pyrimidinediamine], the concentration for half-maximal inhibition (IC50) is at most 10 µM.

`CCN(CC)CCOc1ccc(Nc2ncc(Br)c(Nc3ccccc3OC)n2)cc1` [Example 2, 5-bromo-N^2-(4-{[2-(diethylamino)ethyl]oxy}phenyl)-N^4-[2-(methyloxy)phenyl]-2,4-pyrimidinediamine]: the half-inhibitory concentration (IC50) was at most 10 µM.

Regarding `CCC(C)NC(=O)c1ccccc1Nc1nc(Nc2cccc(CCN3CCOCC3)c2)ncc1Br` (stereo not drawn) [Example 3, 2-{[5-bromo-2-({3-[2-(4-morpholinyl)ethyl]phenyl}amino)-4-pyrimidinyl]amino}-N-(1-methylpropyl)benzamide], the IC50 is at most 10 µM.
